Earlier results on one molecule are cited in US12678439B2 (DOUGLAS PHARMACEUTICALS LIMITED, priority 2018, dated 2026).

As to `Cc1cccc(C)c1OCC(=O)N[C@@H](Cc1ccccc1)[C@@H](O)C[C@H](Cc1ccccc1)NC(=O)[C@H](C(C)C)N1CCCNC1=O` (relative stereo) [Lopinavir, [1S-[1R*(R*), 3R*, 4R*]]—N-[4-[(2,6-dimethylphenoxyl0acetyl]amino]-3-hydroxy-5-phenyl-1-(phenylmethyl)pentyl]tetrahydro-alpha-(1-methylethyl)-2-oxo-1(2H)-pyrimidineacetamide], the solubility in water entry is recorded as “virtually insoluble”.
